Experimental data from the supplement of paper PMC10627819.

Columns and labels:
[1] = system: S. aureus DSM 20231; test: fitness (endpoint OD595 vs no drug) (fraction); higher = more growth
Method in brief: (§1)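 Volumes were 30 µl per well, or 55 µl for S. pneumoniae, in 384-well plates inoculated at OD595 0.01. Media were TSB, LB Lennox or CY at 37 °C, and OD595 was read every 30 min for 14 h with first-reading background subtraction. Fitness is the ratio of optical density at stationary-phase entry to the robust mean of no-drug controls. That ratio is capped at 1.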

[2] = system: S. pneumoniae D39V; test: as above
Method in brief: as §1

[3] = system: B. subtilis 168; test: Bliss interaction score (quartile over a dose matrix) (fitness difference); higher = more antagonism (negative = synergy)
Method in brief: (§2)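 Fitness was OD595 at entry into stationary phase divided by the plate's robust no-drug mean and capped at 1; single-drug fitness was inferred from combination data. The Bliss score is observed minus expected (product) fitness, summarised by quartiles over technical, biological and donor/recipient replicates.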

[4] = system: S. aureus DSM 20231; test: as above
Method in brief: as §2

[5] = system: S. aureus Newman; test: as above
Method in brief: as §2

[6] = system: S. pneumoniae D39V; test: as above
Method in brief: as §2

[7] = first compound 0.0625 µg/mL, partner 0.125 µg/mL
[8] = first compound 0.0625 µg/mL, partner 0.25 µg/mL
[9] = first compound 0.0625 µg/mL, partner 0.5 µg/mL
[10] = first compound 0.125 µg/mL, partner 0.125 µg/mL
[11] = first compound 0.125 µg/mL, partner 0.25 µg/mL
[12] = first compound 0.125 µg/mL, partner 0.5 µg/mL
[13] = first compound 0.125 µg/mL, partner 1 µg/mL, one replicate
[14] = first compound 0.25 µg/mL, partner 0.125 µg/mL
[15] = first compound 0.25 µg/mL, partner 0.25 µg/mL
[16] = first compound 0.25 µg/mL, partner 0.5 µg/mL
[17] = first compound 0.25 µg/mL, partner 1 µg/mL, one replicate
[18] = first compound 0.5 µg/mL, partner 0.125 µg/mL, one replicate
[19] = first compound 0.5 µg/mL, partner 0.25 µg/mL, one replicate
[20] = first compound 0.5 µg/mL, partner 0.5 µg/mL, one replicate
[21] = first compound 0.0008 µg/mL, partner 0.2 µg/mL, one replicate
[22] = first compound 0.0008 µg/mL, partner 0.4 µg/mL, one replicate
[23] = first compound 0.0008 µg/mL, partner 0.8 µg/mL, one replicate
[24] = first compound 0.0015 µg/mL, partner 0.2 µg/mL
[25] = first compound 0.0015 µg/mL, partner 0.4 µg/mL
[26] = first compound 0.0015 µg/mL, partner 0.8 µg/mL
[27] = first compound 0.003 µg/mL, partner 0.2 µg/mL
[28] = first compound 0.003 µg/mL, partner 0.4 µg/mL
[29] = first compound 0.003 µg/mL, partner 0.8 µg/mL
[30] = first compound 0.006 µg/mL, partner 0.2 µg/mL, one replicate
[31] = first compound 0.006 µg/mL, partner 0.4 µg/mL, one replicate
[32] = first compound 0.006 µg/mL, partner 0.8 µg/mL, one replicate
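For Bliss interaction score (quartile over a dose matrix) in this document: first quartile when negative (synergy) and third quartile when positive (antagonism).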

Work on `CC1(C)S[C@@H]2[C@H](NC(=O)[C@H](N)c3ccc(O)cc3)C(=O)N2[C@H]1C(=O)O` [Amoxicillin] + CC(=O)NC[C@H]1CN(c2ccc(N3CCOCC3)c(F)c2)C(=O)O1 [Linezolid] yielded a fitness [1, 7] of 0.652, a fitness [1, 8] of 0.427 and a fitness [1, 9] of 0.161. It also gave a fitness ([1]; first compound 0.0625 µg/mL, partner 1 µg/mL, one replicate) of 0.0145, a fitness [1, 10] of 0.368 and a fitness [1, 11] of 0.292. The fitness [1, 12] was 0.0966, the fitness [1, 13] was 0.012 and the fitness [1, 14] was 0.129. For the same compound, the fitness [1, 15] was 0.0329, the fitness [1, 16] was 0.0469 and the fitness [1, 17] was 0.0104. For the same compound, the fitness [1, 18] was 0.0313, the fitness [1, 19] was 0.0362 and the fitness [1, 20] was 0.032. For the same compound, the fitness ([2]; first compound 0.0008 µg/mL, partner 0.105 µg/mL) was 0.877, the fitness [2, 21] was 0.875 and the fitness ([2]; first compound 0.0008 µg/mL, partner 0.21 µg/mL) was 0.724. It also gave a fitness [2, 22] of 0.648, a fitness ([2]; first compound 0.0008 µg/mL, partner 0.42 µg/mL) of 0.592 and a fitness [2, 23] of 0.419. For the same compound, the fitness ([2]; first compound 0.0015 µg/mL, partner 0.105 µg/mL) was 0.84, the fitness [2, 24] was 0.885 and the fitness ([2]; first compound 0.0015 µg/mL, partner 0.21 µg/mL) was 0.784. It also gave a fitness [2, 25] of 0.523, a fitness ([2]; first compound 0.0015 µg/mL, partner 0.42 µg/mL) of 0.578 and a fitness [2, 26] of 0.377. It also gave a fitness ([2]; first compound 0.003 µg/mL, partner 0.105 µg/mL) of 0.811, a fitness [2, 27] of 0.832 and a fitness ([2]; first compound 0.003 µg/mL, partner 0.21 µg/mL) of 0.72. For the same compound, the fitness [2, 28] was 0.57, the fitness ([2]; first compound 0.003 µg/mL, partner 0.42 µg/mL) was 0.507 and the fitness [2, 29] was 0.39. For the same compound, the fitness [2, 30] was 0.532, the fitness [2, 31] was 0.359 and the fitness [2, 32] was 0.212. For the same compound, the Bliss interaction score [3] was -0.0837, the Bliss interaction score [4] was 0.0353 and the Bliss interaction score [5] was -0.0532. It also gave a Bliss interaction score [6] of 0.225.

With `CC1(C)S[C@@H]2[C@H](NC(=O)[C@H](N)c3ccc(O)cc3)C(=O)N2[C@H]1C(=O)O` [Amoxicillin] + CCC[C@@H]1C[C@@H](C(=O)N[C@@H]([C@H]2O[C@H](SC)[C@H](O)[C@@H](O)[C@H]2O)[C@@H](C)O)N(C)C1 [Lincomycin] the fitness ([1]; first compound 0.0625 µg/mL, partner 0.1 µg/mL) was 0.624, the fitness ([1]; first compound 0.0625 µg/mL, partner 0.2 µg/mL) was 0.492 and the fitness ([1]; first compound 0.0625 µg/mL, partner 0.4 µg/mL) was 0.213. It also gave a fitness ([1]; first compound 0.125 µg/mL, partner 0.2 µg/mL) of 0.358, a fitness ([1]; first compound 0.125 µg/mL, partner 0.4 µg/mL) of 0.129 and a fitness ([1]; first compound 0.25 µg/mL, partner 0.1 µg/mL) of 0.0334. The fitness ([1]; first compound 0.25 µg/mL, partner 0.2 µg/mL) was 0.0486, the fitness ([1]; first compound 0.25 µg/mL, partner 0.4 µg/mL) was 0.064 and the fitness ([1]; first compound 0.5 µg/mL, partner 0.1 µg/mL) was 0.0005. It also gave a fitness ([1]; first compound 0.5 µg/mL, partner 0.2 µg/mL) of 0.0261, a fitness ([1]; first compound 0.5 µg/mL, partner 0.4 µg/mL) of 0.0105 and a fitness [2, 21] of 0.878. For the same compound, the fitness ([2]; first compound 0.0008 µg/mL, partner 0.215 µg/mL) was 0.838, the fitness [2, 22] was 0.489 and the fitness ([2]; first compound 0.0008 µg/mL, partner 0.43 µg/mL) was 0.739. It also gave a fitness [2, 23] of 0.393, a fitness ([2]; first compound 0.0008 µg/mL, partner 0.86 µg/mL) of 0.409 and a fitness [2, 24] of 0.847. For the same compound, the fitness ([2]; first compound 0.0015 µg/mL, partner 0.215 µg/mL) was 0.878, the fitness [2, 25] was 0.54 and the fitness ([2]; first compound 0.0015 µg/mL, partner 0.43 µg/mL) was 0.744. For the same compound, the fitness [2, 26] was 0.312, the fitness ([2]; first compound 0.0015 µg/mL, partner 0.86 µg/mL) was 0.437 and the fitness [2, 27] was 0.816. The fitness ([2]; first compound 0.003 µg/mL, partner 0.215 µg/mL) was 0.852, the fitness [2, 28] was 0.554 and the fitness ([2]; first compound 0.003 µg/mL, partner 0.43 µg/mL) was 0.744. For the same compound, the fitness [2, 29] was 0.337, the fitness ([2]; first compound 0.003 µg/mL, partner 0.86 µg/mL) was 0.477 and the fitness [2, 30] was 0.484. It also gave a fitness [2, 31] of 0.216, a fitness [2, 32] of 0.143 and a Bliss interaction score [3] of -0.0381. The Bliss interaction score [4] was -0.0436, the Bliss interaction score [5] was 0.117 and the Bliss interaction score [6] was 0.227.

`CC1(C)S[C@@H]2[C@H](NC(=O)[C@H](N)c3ccc(O)cc3)C(=O)N2[C@H]1C(=O)O` [Amoxicillin] + COc1cc(Cc2cnc(N)nc2N)cc(OC)c1OC [Trimethoprim] showed a fitness [1, 7] of 0.511, a fitness [1, 8] of 0.401 and a fitness [1, 9] of 0.0356. The fitness ([1]; first compound 0.0625 µg/mL, partner 1 µg/mL) was 0.0213, the fitness [1, 10] was 0.189 and the fitness [1, 11] was 0.11. The fitness [1, 12] was 0.0261, the fitness ([1]; first compound 0.125 µg/mL, partner 1 µg/mL) was 0.0335 and the fitness [1, 14] was 0.0479. The fitness [1, 15] was 0.037, the fitness [1, 16] was 0.033 and the fitness ([1]; first compound 0.25 µg/mL, partner 1 µg/mL) was 0.0125. For the same compound, the fitness [1, 18] was 0.0327, the fitness [1, 19] was 0.0355 and the fitness [1, 20] was 0.0427. The Bliss interaction score [3] was -0.139, the Bliss interaction score [4] was -0.0714 and the Bliss interaction score [5] was 0.0661. It also gave a Bliss interaction score [6] of 0.174.

`CO/N=C(\C(=O)N[C@@H]1C(=O)N2C(C(=O)[O-])=C(C[N+]3(C)CCCC3)CS[C@H]12)c1csc(N)n1` [Cefepime] + CC(=O)NC[C@H]1CN(c2ccc(N3CCOCC3)c(F)c2)C(=O)O1 [Linezolid] was tested, and the fitness [1, 10] was 0.843, the fitness [1, 11] was 0.625 and the fitness [1, 12] was 0.287. It also gave a fitness [1, 13] of 0.0467, a fitness [1, 14] of 0.956 and a fitness [1, 15] of 0.655. The fitness [1, 16] was 0.375, the fitness [1, 17] was 0.0593 and the fitness ([1]; first compound 0.5 µg/mL, partner 0.125 µg/mL) was 0.903. The fitness ([1]; first compound 0.5 µg/mL, partner 0.25 µg/mL) was 0.669, the fitness ([1]; first compound 0.5 µg/mL, partner 0.5 µg/mL) was 0.322 and the fitness ([1]; first compound 0.5 µg/mL, partner 1 µg/mL, one replicate) was 0.052. The fitness ([2]; first compound 0.007 µg/mL, partner 0.2 µg/mL) was 0.827, the fitness ([2]; first compound 0.007 µg/mL, partner 0.4 µg/mL) was 0.567 and the fitness ([2]; first compound 0.007 µg/mL, partner 0.8 µg/mL) was 0.253. For the same compound, the fitness ([2]; first compound 0.0078 µg/mL, partner 0.105 µg/mL) was 0.934, the fitness ([2]; first compound 0.0078 µg/mL, partner 0.21 µg/mL) was 0.825 and the fitness ([2]; first compound 0.0078 µg/mL, partner 0.42 µg/mL) was 0.692. It also gave a fitness ([2]; first compound 0.014 µg/mL, partner 0.2 µg/mL) of 0.797, a fitness ([2]; first compound 0.014 µg/mL, partner 0.4 µg/mL) of 0.573 and a fitness ([2]; first compound 0.014 µg/mL, partner 0.8 µg/mL) of 0.259. The fitness ([2]; first compound 0.0155 µg/mL, partner 0.105 µg/mL) was 0.912, the fitness ([2]; first compound 0.0155 µg/mL, partner 0.21 µg/mL) was 0.796 and the fitness ([2]; first compound 0.0155 µg/mL, partner 0.42 µg/mL) was 0.608. It also gave a fitness ([2]; first compound 0.028 µg/mL, partner 0.2 µg/mL) of 0.751, a fitness ([2]; first compound 0.028 µg/mL, partner 0.4 µg/mL) of 0.512 and a fitness ([2]; first compound 0.028 µg/mL, partner 0.8 µg/mL) of 0.244. The fitness ([2]; first compound 0.031 µg/mL, partner 0.105 µg/mL) was 0.645, the fitness ([2]; first compound 0.031 µg/mL, partner 0.21 µg/mL) was 0.504 and the fitness ([2]; first compound 0.031 µg/mL, partner 0.42 µg/mL) was 0.258. It also gave a Bliss interaction score [3] of 0.0847, a Bliss interaction score [4] of 0.11 and a Bliss interaction score [5] of 0.0424. For the same compound, the Bliss interaction score [6] was 0.165.
